In the NIST ThermoML archive (doi:10.1016/j.jct.2009.05.019):
Numbers after ± are expanded uncertainties.

Test: molar enthalpy of vaporization or sublimation
Conditions: 298.15 K; Crystal; Calvet microcalorimetry

c1ccc2c(c1)sc1ccccc12 [dibenzothiophene]
molar enthalpy: 22.3 ± 0.239 kcal/mol
